According to paper PMC11077815, “Synthesis and antitumor activity of dolutegravir derivatives bearing 1,2,3-triazole moieties” (BMC Chemistry, 2024):

How the values were obtained:
A549 = test: CCK8 cell viability assay, A549; assay type: cell-based, Human; conditions: for Cell viability (100%): A549, 20 µM, 48 h, CCK8, control = 100%; for IC50: A549, 48 h, CCK8, mean ± SE
Procedure: (§1) At first, CCK8 assay was carried out to evaluate the anti-proliferative activity of dolutegravir-1,2,3-triazole derivatives against different cancer cell lines. The results of cell viability of three lung cancer cell lines A549, PC-9 and H460 in the presence of compounds 9 and 10 are summarized in Table 2. Cells were treated with different compounds at the concentration of 20 µM for 48 h. […] Human lung cancer cell lines A549, PC-9 and H460 were all obtained from ATCC. Cells were cultured in DMEM or RPMI 1640 medium containing 10% FBS and 1% penicillin/streptomycin at 37 °C with a 5% CO2-humidified atmosphere. CCK8 assay was used to measure cell viability. Cells with a density of 1 × 10^4 cells/well were seeded on the 96-well plates. After adhesion, cells were treated with different diluted compounds or vehicle control DMSO and continue cultured for 48 h. Then, CCK8 reagent was added for one hour incubation at 37 °C with 5% of CO2. Absorbance was measured using a microplate spectrophotometer (Thermo) at 450 nm. The ratio of cell viability of control was taken as 100%. […] Then IC50 of the compounds were investigated using the prism statistical software.

PC-9 = test: CCK8 cell viability assay, PC-9; assay type: cell-based, Human; conditions: for Cell viability (100%): PC9, 20 µM, 48 h, CCK8, control = 100%; for IC50: PC9, 48 h, CCK8, mean ± SE
Procedure: as §1

H460 = test: CCK8 cell viability assay, H460; assay type: cell-based, Human; conditions: for Cell viability (100%): H460, 20 µM, 48 h, CCK8, control = 100%; for IC50: H460, 48 h, CCK8, mean ± SE
Procedure: as §1

[1] = tested on: HRM (Human Renal Mesangial) cell line; test: CCK8 cell viability assay, HRM normal cells (toxicity control); assay type: cell-based; conditions: HRM normal human cells, 48 h, CCK8, mean ± SE
Procedure: Based on these preliminary results, compounds 9c, 9e, 9f, 9i, 9k, 9 L, 9p, 9q, 9t, 9u, 9v, 9w, 10c, 10e which were effective to most of the cell lines were chosen for the measurement of the half-maximal inhibitory concentration (IC50). […] HRM (Human Renal Mesangial) cell line was used as a control to study the toxicity of these compounds against normal human cells.
CCK8 assay was used to measure cell viability. Cells with a density of 1 × 10^4 cells/well were seeded on the 96-well plates. After adhesion, cells were treated with different diluted compounds or vehicle control DMSO and continue cultured for 48 h. Then, CCK8 reagent was added for one hour incubation at 37 °C with 5% of CO2. Absorbance was measured using a microplate spectrophotometer (Thermo) at 450 nm. The ratio of cell viability of control was taken as 100%. […] Then IC50 of the compounds were investigated using the prism statistical software.

Row | Structure (SMILES) | Cell viability (100%) (A549) [%] | IC50 (A549) [µM] | Cell viability (100%) (PC-9) [%] | IC50 (PC-9) [µM] | Cell viability (100%) (H460) [%] | IC50 (H460) [µM] | IC50 [1] [µM]
1 | COc1c2n(cc(C(=O)Nc3cccc(-c4cn(Cc5ccccc5Br)nn4)c3)c1=O)C[C@@H]1OCC[C@@H](C)N1C2=O [Compound 10c] | 68.05 | > 50 | 50.54 | 12.1 ± 0.46 | 41.79 | 15.4 ± 1.38 | > 50
2 | COc1c2n(cc(C(=O)Nc3cccc(-c4cn(-c5ccc(F)cc5)nn4)c3)c1=O)C[C@@H]1OCC[C@@H](C)N1C2=O [Compound 9 g] | 91.65 | – | 88.64 | – | 97.85 | – | –
3 | COc1c2n(cc(C(=O)Nc3cccc(-c4cn(Cc5ccccc5F)nn4)c3)c1=O)CC1OCCC(C)N1C2=O (centres unmarked) [Compound 10f] | 82.22 | – | 61.10 | – | 32.43 | – | –
4 | COc1c2n(cc(C(=O)Nc3cccc(-c4cn(-c5ccccc5)nn4)c3)c1=O)C[C@@H]1OCC[C@@H](C)N1C2=O [Compound 9o] | 78.59 | – | 94.56 | – | 87.72 | – | –
5 | COc1c2n(cc(C(=O)Nc3cccc(-c4cn(-c5ccccc5Cl)nn4)c3)c1=O)C[C@@H]1OCC[C@@H](C)N1C2=O [Compound 9v] | 54.06 | > 50 | 47.42 | 11.6 ± 0.48 | 38.13 | 16.2 ± 1.29 | > 50
6 | COc1c2n(cc(C(=O)Nc3cccc(-c4cn(-c5c(C)cc(C)cc5C)nn4)c3)c1=O)C[C@@H]1OCC[C@@H](C)N1C2=O [Compound 9z] | 91.32 | – | 73.07 | – | 55.57 | – | –
7 | COc1c2n(cc(C(=O)Nc3cccc(-c4cn(-c5ccccc5I)nn4)c3)c1=O)C[C@@H]1OCC[C@@H](C)N1C2=O [Compound 9w] | 57.94 | 33.7 ± 0.68 | 55.21 | 9.94 ± 0.36 | 30.63 | 14.7 ± 2.83 | > 50
8 | COc1c2n(cc(C(=O)Nc3cccc(-c4cn(Cc5ccccc5C(F)(F)F)nn4)c3)c1=O)CC1OCCC(C)N1C2=O (centres unmarked) [Compound 10 h] | 77.72 | – | 66.77 | – | 28.10 | – | –
9 | COc1cccc(-n2cc(-c3cccc(NC(=O)c4cn5c(c(OC)c4=O)C(=O)N4[C@H](C)CCO[C@H]4C5)c3)nn2)c1 [Compound 9 L] | 73.36 | 44.3 ± 1.21 | 47.77 | 9.2 ± 0.65 | 20.32 | 25.5 ± 0.43 | 43.3 ± 3.27
10 | COc1cccc(Cn2cc(-c3cccc(NC(=O)c4cn5c(c(OC)c4=O)C(=O)N4[C@H](C)CCO[C@H]4C5)c3)nn2)c1 [Compound 10d] | 89.00 | – | 83.17 | – | 77.21 | – | –
11 | COc1c2n(cc(C(=O)Nc3cccc(-c4cn(Cc5ccccc5)nn4)c3)c1=O)C[C@@H]1OCC[C@@H](C)N1C2=O [Compound 10b] | 87.18 | – | 96.85 | – | 55.00 | – | –
12 | COc1c2n(cc(C(=O)Nc3cccc(-c4cn(Cc5ccccc5C)nn4)c3)c1=O)CC1OCCC(C)N1C2=O (centres unmarked) [Compound 10 g] | 71.58 | – | 54.61 | – | 35.98 | – | –
13 | CCOc1ccc(-n2cc(-c3cccc(NC(=O)c4cn5c(c(OC)c4=O)C(=O)N4[C@H](C)CCO[C@H]4C5)c3)nn2)cc1 [Compound 9 h] | 77.55 | – | 71.96 | – | 52.87 | – | –
14 | COc1c2n(cc(C(=O)Nc3cccc(-c4cn(-c5ccccc5Br)nn4)c3)c1=O)C[C@@H]1OCC[C@@H](C)N1C2=O [Compound 9u] | 64.09 | > 50 | 43.88 | 7.77 ± 0.37 | 31.00 | 37.3 ± 2.25 | > 50
15 | COc1cc([N+](=O)[O-])ccc1-n1cc(-c2cccc(NC(=O)c3cn4c(c(OC)c3=O)C(=O)N3[C@H](C)CCO[C@H]3C4)c2)nn1 [Compound 9b] | 92.60 | – | 104.86 | – | 98.64 | – | –
16 | COc1ccc(-n2cc(-c3cccc(NC(=O)c4cn5c(c(OC)c4=O)C(=O)N4[C@H](C)CCO[C@H]4C5)c3)nn2)cc1OC [Compound 9j] | 87.42 | – | 85.93 | – | 92.89 | – | –
17 | COc1c2n(cc(C(=O)Nc3cccc(-c4cn(Cc5cc(Br)cc(Br)c5)nn4)c3)c1=O)C[C@@H]1OCC[C@@H](C)N1C2=O [Compound 10a] | 87.40 | – | 103.57 | – | 82.32 | – | –
18 | COc1c2n(cc(C(=O)Nc3cccc(-c4cn(-c5ccc(C)cc5)nn4)c3)c1=O)C[C@@H]1OCC[C@@H](C)N1C2=O [Compound 9y] | 85.43 | – | 79.67 | – | 94.78 | – | –
19 | CCc1ccc(-n2cc(-c3cccc(NC(=O)c4cn5c(c(OC)c4=O)C(=O)N4[C@H](C)CCO[C@H]4C5)c3)nn2)cc1 [Compound 9 m] | 65.08 | – | 63.65 | – | 62.63 | – | –
20 | COc1c2n(cc(C(=O)Nc3cccc(-c4cn(-c5ccccc5C)nn4)c3)c1=O)C[C@@H]1OCC[C@@H](C)N1C2=O [Compound 9s] | 82.07 | – | 65.73 | – | 48.37 | – | –
21 | COc1ccc(-n2cc(-c3cccc(NC(=O)c4cn5c(c(OC)c4=O)C(=O)N4C(C)CCOC4C5)c3)nn2)cc1 (centres unmarked) [Compound 9x] | 69.21 | – | 78.11 | – | 108.05 | – | –
22 | COc1c2n(cc(C(=O)Nc3cccc(-c4cn(-c5ccc(C(F)(F)F)cc5)nn4)c3)c1=O)C[C@@H]1OCC[C@@H](C)N1C2=O [Compound 9d] | 82.37 | – | 105.15 | – | 69.71 | – | –
23 | COc1c2n(cc(C(=O)Nc3cccc(-c4cn(-c5ccccc5F)nn4)c3)c1=O)C[C@@H]1OCC[C@@H](C)N1C2=O [Compound 9a] | 95.90 | – | 52.03 | – | 47.20 | – | –
24 | COc1c2n(cc(C(=O)Nc3cccc(-c4cn(-c5ccc(C(C)(C)C)cc5)nn4)c3)c1=O)C[C@@H]1OCC[C@@H](C)N1C2=O [Compound 9n] | 67.60 | – | 59.44 | – | 24.58 | – | –
25 | COc1c2n(cc(C(=O)Nc3cccc(-c4cn(-c5cc(C(F)(F)F)cc(C(F)(F)F)c5)nn4)c3)c1=O)C[C@@H]1OCC[C@@H](C)N1C2=O [Compound 9r] | 90.73 | – | 98.55 | – | 117.07 | – | –
